Laboratory results reported in BindingDB's records for patent US11834453 (Array Biopharma, 2023).

Target: Receptor tyrosine-protein kinase erbB-2 (Homo sapiens, UniProt P04626)
Experiment: ErbB Enzyme Assay
Method: The kinases were incubated with 250 nM TK-substrate biotin (CisBio, part of cat #62TK0PEC) at 1 mM ATP along with test compounds in a buffer consisting of 25 mM HEPES, pH 7.4, 10 mM MgCl2, 0.01% Triton X-100, and 2% DMSO in a volume of 8 uL. Compounds were prepared as a three-fold serial dilution in DMSO and added to the assay to give the appropriate final concentration. After 30-minute incubation at 22 C., the reaction was quenched by adding 8 uL of quench solution containing 62.5 nM Sa-XL665 and 0.25x TK-Ab-Cryptate in HTRF detection buffer (all from CisBio, part of cat #62TK0PEC). After a 1-hour incubation at 22 C., the extent of reaction was determined using a PerkinElmer EnVision multimode plate reader via HTRF dual wavelength detection, and the percent of control (POC) was calculated using a ratiometric emission factor.

Chain of Receptor tyrosine-protein kinase erbB-2 (P04626 whole entry): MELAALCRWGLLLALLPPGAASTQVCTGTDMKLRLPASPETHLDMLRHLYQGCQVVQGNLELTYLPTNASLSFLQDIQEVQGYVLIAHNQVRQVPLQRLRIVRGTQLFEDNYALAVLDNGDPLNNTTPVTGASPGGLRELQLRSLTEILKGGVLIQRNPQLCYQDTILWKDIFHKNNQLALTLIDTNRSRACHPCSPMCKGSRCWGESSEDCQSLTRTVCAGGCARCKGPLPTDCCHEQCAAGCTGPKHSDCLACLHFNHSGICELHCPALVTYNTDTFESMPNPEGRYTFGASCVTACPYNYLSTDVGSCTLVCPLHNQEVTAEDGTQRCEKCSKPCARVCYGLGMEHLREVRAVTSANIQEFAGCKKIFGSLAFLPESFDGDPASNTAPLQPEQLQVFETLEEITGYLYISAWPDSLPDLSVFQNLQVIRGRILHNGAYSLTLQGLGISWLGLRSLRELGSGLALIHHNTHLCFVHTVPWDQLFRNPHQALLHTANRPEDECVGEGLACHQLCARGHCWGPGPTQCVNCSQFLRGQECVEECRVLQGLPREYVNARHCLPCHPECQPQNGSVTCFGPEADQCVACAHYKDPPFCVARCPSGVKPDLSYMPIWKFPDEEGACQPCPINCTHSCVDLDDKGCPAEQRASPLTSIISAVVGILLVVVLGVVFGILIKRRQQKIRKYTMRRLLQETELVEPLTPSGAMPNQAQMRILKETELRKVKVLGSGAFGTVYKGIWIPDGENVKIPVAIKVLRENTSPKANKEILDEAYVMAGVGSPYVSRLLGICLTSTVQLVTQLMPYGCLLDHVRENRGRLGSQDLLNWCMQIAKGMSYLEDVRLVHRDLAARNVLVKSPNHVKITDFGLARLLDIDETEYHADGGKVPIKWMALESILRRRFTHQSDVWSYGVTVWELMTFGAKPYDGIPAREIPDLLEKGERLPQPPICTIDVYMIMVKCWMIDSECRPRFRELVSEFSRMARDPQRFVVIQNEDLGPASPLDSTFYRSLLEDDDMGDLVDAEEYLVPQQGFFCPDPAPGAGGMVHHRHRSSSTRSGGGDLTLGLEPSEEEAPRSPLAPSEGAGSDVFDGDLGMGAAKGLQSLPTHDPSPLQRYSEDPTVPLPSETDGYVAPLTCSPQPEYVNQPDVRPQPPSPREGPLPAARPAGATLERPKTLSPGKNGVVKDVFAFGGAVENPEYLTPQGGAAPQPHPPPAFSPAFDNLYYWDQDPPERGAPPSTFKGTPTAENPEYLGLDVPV

Structure (SMILES)	IC50 [nM]
CCOc1ncc2ncnc(Nc3ccc(Oc4ccc5c(c4)ncn5C)c(C)c3)c2n1 [US11834453, Example 13]	121
Cc1cc(Nc2ncnc3cnc(N4C[C@H]5CC[C@@H]4CO5)nc23)ccc1Oc1ccn2ncnc2c1 [US11834453, Example 127]	114
Cc1cc(Nc2ncnc3cnc(N4CC(C)(O)CO4)nc23)ccc1Oc1ccc2c(c1)ncn2C (stereo not drawn) [US11834453, Example 191]	171
Cc1cc(Nc2ncnc3cnc(N4CC5C6CCC(O6)C5C4)nc23)ccc1Oc1ccc2c(c1)ncn2C (stereo not drawn) [US11834453, Example 16]	60.6
Cc1cc(Nc2ncnc3cnc(N4CCCO4)nc23)ccc1Oc1ccc2c(c1)ncn2C [US11834453, Example 178]	67.1
Cc1cc(Nc2ncnc3cnc(N(C)CCO)nc23)ccc1Oc1ccc2c(c1)ncn2C [US11834453, Example 208]	25.6
Cc1cc(Nc2ncnc3cnc(N(C)C[C@@H](C)O)nc23)ccc1Oc1ccc2c(c1)ncn2C [US11834453, Example 189]	32.2
Cc1cc(Nc2ncnc3cnc(N(C)C[C@H](C)O)nc23)ccc1Oc1ccc2c(c1)ncn2C [US11834453, Example 195]	37.5
